Assay results as given in PMC12799421, “Inhibition of constitutive activity of the atypical chemokine receptor 3 by the small-molecule inverse agonist VUF16840” (Molecular Pharmacology, 2025).
Where two headings read alike, the source gives them in different places.

Key:
HA-hACKR3 = target: T1, HA-hACKR3 (Homo sapiens, UniProt P25106); test: [3H]VUF15485 radioligand binding assay; conditions: 2 nM [3H]VUF15485, HEK293T membranes
T1 construct: expressed in transfected cells; host or cells: HEK293T (membranes, transient expression)
T1 sequence (P25106 whole entry): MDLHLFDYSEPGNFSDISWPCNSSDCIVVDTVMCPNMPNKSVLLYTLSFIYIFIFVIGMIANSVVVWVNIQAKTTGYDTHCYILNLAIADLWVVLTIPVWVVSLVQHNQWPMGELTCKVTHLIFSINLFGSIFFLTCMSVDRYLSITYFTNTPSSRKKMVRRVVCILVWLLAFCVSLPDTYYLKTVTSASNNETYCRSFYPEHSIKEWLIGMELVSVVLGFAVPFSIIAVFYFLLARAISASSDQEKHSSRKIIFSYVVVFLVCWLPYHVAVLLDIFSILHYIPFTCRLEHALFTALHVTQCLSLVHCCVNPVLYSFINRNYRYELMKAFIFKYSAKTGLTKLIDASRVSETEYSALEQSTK
Protocol: (§1) Membranes of HEK293T cells that transiently expressed the NLuc-hACKR3 or HA-hACKR3 were produced as previously described.[23] Briefly, 2 million HEK293T cells were seeded per […] and were transfected the following day using a DNA/PEI-mix containing 0.25 μg plasmid DNA encoding for the ACKR3, 4.75 μg pcDEF3 plasmid DNA and 30 μg linear PEI. Two days after transfection, cells were collected in PBS (137 mM NaCl, 2.57 mM KCl, 1.5 mM KH2PO4, 8 mM Na2HPO4) and pelleted by centrifugation. Cell pellets were resuspended in ice-cold membrane buffer (15 mM Tris, 0.3 mM EDTA, 2 mM MgCl2, pH 7.4 at 4 °C) and dounce-homogenized on ice by plunging the pestle 10 times with 1500 rpm. Cell homogenates were subsequently subjected to 2 freeze-thaw cycles using liquid nitrogen. Next, the cell homogenates were centrifuged at 40,000 g and pellets were resuspended in Tris-sucrose buffer (20 mM Tris, 250 mM sucrose, pH 7.4 at 4 °C). […]
Radioligand binding studies were performed as described earlier.[23] […] Filter-bound [^3H]VUF15485 was measured by adding 25 μL MicroScint-O per well to the dried GF/C-plate and radioactivity was quantified using the Wallac Microbeta counter (Perkin Elmer).
The sigmoidal concentration-dependent displacement of binding of the probes [^3H]VUF15485 and CXCL12-A647 by unlabeled ligands were analyzed using GraphPad Prism 8, by fitting a one-site binding model to the data, to determine the pIC50. Mean pIC50 values were determined by averaging fitted values from individual experiments. […] Similarly, sigmoidal, ligand-induced concentration-dependent activation or inhibition of the proximity between ACKR3 and the protein of interest was analyzed using GraphPad Prism 8, by fitting a 3-parameter concentration-response model to the data, to determine pEC50/pIC50 values. Mean pEC50 values and pIC50 values were determined by averaging fitted values from individual experiments. […]
The ACKR3 ligand VUF16840 was evaluated for its binding to hACKR3 in different competition binding assay formats (Fig. 1). […]

ACKR3 [1] = target: T2, ACKR3 (Homo sapiens, UniProt P25106); test: BRET ACKR3-Rab5a proximity (early endosome translocation) in HEK293T cells; type: cell-based; conditions: for EC50: * VUF16840 as inverse agonist, read-out: Rab5a BRET pEC50 (converted)
T2 construct: expressed in transfected cells; host or cells: HEK293T
T2 sequence (P25106 whole entry): as above
Protocol: (§2) For 1·10^6 HEK293T cells, a transfection mix consisting of 2 μg plasmid DNA, 12 μg linear PEI in a total volume of 200 μL 150 mM NaCl was made and thoroughly vortexed. The transfection mix was incubated for 15 minutes and consequently added to a cell suspension with a final concentration of 3·10^5 cells/mL. For functional studies this cell suspension was immediately transferred to a poly-L-lysine-coated white 96-well plate, with 3·10^4 cells per well. […] For BRET-based membrane localization experiments, the 2 μg plasmid DNA consisted of ACKR3-NL (0.05 μg), mVenus-CAAX (0.25 μg), and pcDEF3 vector DNA without insert (1.7 μg).
The sigmoidal concentration-dependent displacement of binding of the probes [^3H]VUF15485 and CXCL12-A647 by unlabeled ligands were analyzed using GraphPad Prism 8, by fitting a one-site binding model to the data, to determine the pIC50. Mean pIC50 values were determined by averaging fitted values from individual experiments. Graphs depict the pooled data of all experiments. Similarly, sigmoidal, ligand-induced concentration-dependent activation or inhibition of the proximity between ACKR3 and the protein of interest was analyzed using GraphPad Prism 8, by fitting a 3-parameter concentration-response model to the data, to determine pEC50/pIC50 values. Mean pEC50 values and pIC50 values were determined by averaging fitted values from individual experiments. Graphs depict the pooled data of all experiments, for which values are normalized, per experiment, to the fold difference compared with basal signal.
Fig. 5 Inhibition of both constitutive as well as agonist-induced ACKR3 activity by VUF16840. […] The resulting proximity between ACKR3 and β-arrestin1 (A, E), GRK2 (B, F), or Rab5a (C, G) was determined by bioluminescence resonance energy transfer. Furthermore, an interaction between clathrin A and β-arrestin2 was measured by NLuc complementation, as was determined by quantifying the relative light units (D, H). […]

ACKR3 [2] = target: T2, ACKR3; test: BRET GRK2 recruitment to ACKR3 in HEK293T cells; type: cell-based; conditions: for EC50: * VUF16840 as inverse agonist, read-out: GRK2 BRET pEC50 (converted)
Protocol: For bioluminescence resonance energy transfer (BRET) experiments, several BRET acceptor constructs were used that consist of the pcDEF3 vector with either GRK2 (NCBI: NM_174710.2), β-arrestin1 (NCBI: NM_174243.3), or β-arrestin2 (NCBI: XM_005220181.4) fused at the C-terminus with a SpeI/NotI linker to mVenus (NCBI: KP666136.1), as previously described.[34]
as §2
The sigmoidal concentration-dependent displacement of binding of the probes [^3H]VUF15485 and CXCL12-A647 by unlabeled ligands were analyzed using GraphPad Prism 8, by fitting a one-site binding model to the data, to determine the pIC50. Mean pIC50 values were determined by averaging fitted values from individual experiments. Graphs depict the pooled data of all experiments. Similarly, sigmoidal, ligand-induced concentration-dependent activation or inhibition of the proximity between ACKR3 and the protein of interest was analyzed using GraphPad Prism 8, by fitting a 3-parameter concentration-response model to the data, to determine pEC50/pIC50 values. Mean pEC50 values and pIC50 values were determined by averaging fitted values from individual experiments. […]
Fig. 5 Inhibition of both constitutive as well as agonist-induced ACKR3 activity by VUF16840. […] The resulting proximity between ACKR3 and β-arrestin1 (A, E), GRK2 (B, F), or Rab5a (C, G) was determined by bioluminescence resonance energy transfer. […]

NLuc-hACKR3 = target: T3, NLuc-hACKR3 (Homo sapiens, UniProt P25106); test: NanoBRET ligand binding assay (CXCL12-AF647 displacement); conditions: 0.3 nM CXCL12-AF647, HEK293T membranes; read-out: IC50, displacement of CXCL12-A647 binding to NLuc-hACKR3
T3 construct: expressed in transfected cells; host or cells: HEK293T (membranes, transient expression)
T3 sequence (P25106 whole entry): as above
Protocol: as §1, with “rpm.” for “rpm. Cell homogenates were subsequently subjected to 2 freeze-thaw cycles using liquid nitrogen. Next, the cell homogenates were centrifuged at 40,000 g and pellets were resuspended in Tris-sucrose buffer (20 mM Tris, 250 mM sucrose, pH 7.4 at 4 °C).”
All dilutions were prepared in HBSS supplemented with 0.2% BSA. […] Total light intensity was measured at 460 nm wavelength with 80 nm bandwidth and separately for wavelengths ≥610 nm using the PHERAstar-FSX (BMG Labtech) with a dual emission filter. […]
The sigmoidal concentration-dependent displacement of binding of the probes [^3H]VUF15485 and CXCL12-A647 by unlabeled ligands were analyzed using GraphPad Prism 8, by fitting a one-site binding model to the data, to determine the pIC50. Mean pIC50 values were determined by averaging fitted values from individual experiments. […] Mean pEC50 values and pIC50 values were determined by averaging fitted values from individual experiments. […]

[3] = read-out: IC50, displacement of [3H]VUF15485 binding from HA-hACKR3

| Compound | IC50 (HA-hACKR3; [3]) [nM] | EC50 (ACKR3 [1]) [nM] | EC50 (ACKR3 [2]) [nM] | IC50 (NLuc-hACKR3) [nM] | IC50 (HA-hACKR3; mean ± SD, read-out: pIC50, displacement of [3H]VUF15485 binding from HA-hACKR3 (converted)) [nM] | IC50 (ACKR3 [1]; versus 100 nM VUF15485, read-out: Rab5a BRET, Inhibition by VUF16840 (pIC50) (converted)) [nM] | IC50 (ACKR3 [2]; versus 100 nM VUF15485, read-out: GRK2 BRET, Inhibition by VUF16840 (pIC50) (converted)) [nM] |
| --- | --- | --- | --- | --- | --- | --- | --- |
| COc1cc(C(=O)N(CCC2CCCN2C)CC(C)=Cc2ccccc2F)cc(OC)c1OC (centres unmarked) [VUF15485, reference compound] | 20 | 7.94 | 25.1 | 28 | – | – | – |
| COc1ccccc1CCNC(=O)C1CN(C2CCCCC2)CCC1NC(=O)c1cc(-c2ccc(F)cc2F)on1 (centres unmarked) [VUF16840] | 0.7 | 1.58 | 3.16 | 7 | 0.794 | 5.01 | 3.98 |
